Test results from patent US4990617A, “N-oxide prodrug derivatives of 3-hydroxy morphinans and partial morphinans and derivatives” (E. I. Du Pont de Nemours and Company, priority 1989, dated 1991).
Where a name gives a salt, the structure may show the parent alone. Read-outs that look alike come from different tables or passages of the source.

Assays:
[1] = literature, cited from earlier work
[2] = background, cited from earlier work
[3] = guinea pig liver microsomal preparation; literature; cited from earlier work
[4] = administered to rats; literature; cited from earlier work
[5] = literature, cited from earlier work; for therapeutic index: relative to corresponding tertiary amines
[6] = literature; cited from earlier work
[7] = administered to rabbits; literature; cited from earlier work
[8] = administered to mice; literature; cited from earlier work
[9] = In vitro reduction of N-oxide to drug in human plasma; assay type: in vitro ADME; settings: 37° C., 0.28 μM
Protocol: (§1) Among the experiments used to evaluate the N-oxide prodrugs of the instant invention were measurements of their reduction rates in vitro by various biological media from rats, dogs, and humans, and drug bioavailability in rats and dogs administered oral doses of the prodrug. Drug concentration was determined after solvent extraction, using high pressure liquid chromatography analytical procedures.
(§2) Prodrug was added to fresh biological medium to a concentration of 0.28 μM, incubated at 37° C., and the rate of drug appearance was measured.

[10] = In vitro reduction of N-oxide to drug in dog plasma; assay type: in vitro ADME; settings: 37° C., read-out: t1/2 of conversion of nalbuphine N-oxide to nalbuphine (converted)
Protocol: as §1, §2

[11] = In vitro reduction of N-oxide to drug in rat plasma; assay type: in vitro ADME; settings: 37° C., read-out: t1/2 of conversion of nalbuphine N-oxide to nalbuphine (converted)
Protocol: as §1, §2

[12] = In vitro reduction of N-oxide to drug in rat liver homogenate; assay type: in vitro ADME; settings: in 3 minutes, rat liver homogenate (25%), 37° C., read-out: Conversion of nalbuphine N-oxide to nalbuphine
Protocol: as §1, §2

[13] = In vitro reduction of N-oxide to drug in rat intestine homogenate; assay type: in vitro ADME; settings: in 10 minutes, rat intestine homogenate (25%), 37° C., read-out: Conversion of nalbuphine N-oxide to nalbuphine
Protocol: as §1, §2

[14] = Oral bioavailability in rats; assay type: in vivo; settings: plasma; rat, oral nalbuphine; read-out: F(DRUG), nalbuphine bioavailability from orally administered parent drug
Protocol: as §1
(§3) Rats and dogs were administered the parent drug intravenously and orally, and the prodrugs were administered orally. Usually, doses were administered as aqueous solutions prepared immediately before dosing. Plasma was collected and frozen until analysis of drug concentration. The area under the plasma drug concentration versus time curve (AUC) was calculated for each animal. Bioavailability (F) was estimated by: [formula] F represents the percentage of the administered dose absorbed into plasma. Relative bioavailability (RB) of parent drug was determined by comparing the bioavailability from orally administered prodrug F(pro) with the bioavailability from orally administered parent drug F(drug). [formula]

[15] = Oral bioavailability in dogs; assay type: in vivo; settings: plasma, dog, read-out: oral bioavailability of nalbuphine
Protocol: as §1, §3

[16] = Plasma naloxone concentration after oral dosing in dogs; assay type: in vivo; settings: dog; for concentration at 0.5 h / concentration at 1 h / concentration at 2 h / concentration at 3 h / concentration at 4 h / concentration at 6 h / concentration at 8 h: in vivo, equimolar oral doses, read-out: Average Plasma Naloxone Conc.
Protocol: as §1
as §3, with “[…].” for “Bioavailability (F) was estimated by: [formula] F represents the percentage of the administered dose absorbed into plasma.”

[17] = Plasma naltrexone concentration after oral dosing in dogs; assay type: in vivo; settings: dog, normalized for dose
Protocol: as §1
as §3, with “[…].” for “Bioavailability (F) was estimated by: [formula] F represents the percentage of the administered dose absorbed into plasma.”

[18] = literature, cited from earlier work; remark: listed apart in the source
[19] = rabbits administered oxycodone subcutaneously; literature; cited from earlier work

For `CC[N+]([O-])(CC)CC(=O)N1CCN2C(=O)c3ccccc3C12c1ccccc1` (stereo not drawn), the pharmacological properties ([1]; Swiss Patent No. 481,124) is given as “analgesic, sedative, antitussive, hypotensive, and spasmolytic properties”.
In the case of 3-methyl-morphine [Codeine], the “oral:parenteral potency ratio” value ([2]; relative to morphine) is given as “much higher oral:parenteral potency ratio than morphine”, the “conversion to N-oxide” value [3] is given as “converted in part to the corresponding N-oxides” and the “metabolism to N-oxide” value [4] is given as “partially metabolized to the N-oxides”.
For `C[N+]1([O-])CC[C@]23CCCC[C@H]2[C@H]1Cc1ccc(O)cc13` (stereo partly drawn) [3-hydroxy-N-methylmorphinan N-oxide], the therapeutic index [5] is given as “higher therapeutic index than the corresponding tertiary amines”.
In the case of `COc1ccc2c(c1)[C@@]13CCCC[C@H]1[C@@H](C2)[N+](C)([O-])CC3` (stereo partly drawn) [3-methoxy-N-methylmorphinan N-oxide], the therapeutic index [5] is given as “higher therapeutic index than the corresponding tertiary amines”.
In the case of `C[N+]1([O-])CC[C@]23c4c5ccc(O)c4O[C@H]2[C@@H](O)C=C[C@H]3[C@H]1C5` (stereo partly drawn) [Morphine N-oxide], the analgesic activity [1] is given as “either less active or inactive as an analgesic”, the antitussive activity [6] is given as “effective antitussive” and the toxicity [5] is given as “somewhat lower toxicity than morphine”. The “reduction of N-oxide to tertiary amine” value [4] was “partially reduced to morphine”.
In the case of `CCC(=O)OC1(c2ccccc2)CC[N+](C)([O-])CC1` (stereo not drawn) [N-oxide of 1-methyl-4-phenyl-4-piperidinol propionate], the “reduction of N-oxide to tertiary amine” value [7] is given as “partially reduced to the tertiary amine”, the “reduction of N-oxide to tertiary amine” value [8] is given as “partially reduced to the tertiary amine” and the “reduction of N-oxide to tertiary amine” value [4] is given as “partially reduced to the tertiary amine”.
For `CCC(=O)OC1(c2ccccc2)CC[N+](C)([O-])CC1` (stereo not drawn) [N-oxide of 1-methyl-4-phenyl-4-propionoxypiperidine HCl], the “duration of analgesic activity” value ([1]; relative to dolantin HCl) is listed as “of longer duration”, the analgesic activity [1] is listed as “analgesic activity equal to that of dolantin HCl” and the toxicity [5] is listed as “Toxicity was also less”.
For `[O-][N+]1(CC2CCC2)CC[C@]23c4c5ccc(O)c4O[C@H]2[C@@H](O)CC[C@@]3(O)[C@H]1C5` (stereo partly drawn) [Nalbuphine N-oxide], the “Rate of conversion of nalbuphine N-oxide to nalbuphine” value [9] was “negligible”, the half-life at 0.28 µM [10] was 53.7 h and the half-life at 0.28 µM [11] was 6 h. The metabolised at 0.05 h, 0.28 µM [12] was 100% and the metabolised at 10 min, 0.28 µM [13] was 100%.
Work on `Oc1ccc2c3c1O[C@H]1[C@@H](O)CC[C@@]4(O)[C@@H](C2)N(CC2CCC2)CC[C@]314` [Nalbuphine, (-)-17-(Cyclobutylmethyl)-4,5α-epoxymorphinan-3,6α,14-triol] yielded a bioavailability [14] of 2.7 ± 0.4% and a bioavailability [15] of 5.4%.
With `C=CC[N+]1([O-])CC[C@]23c4c5ccc(O)c4O[C@H]2C(=O)CC[C@@]3(O)[C@H]1C5` (stereo partly drawn) [Naloxone N-oxide, naloxone N-oxide] the “Oral naloxone bioavailability when administered as the N-oxide, relative to naloxone” value ([16]; oral) was “improved”, the concentration at 0.5 h [16] was 947 ng/mL and the concentration at 1 h [16] was 1220 ng/mL. For the same molecule, the concentration at 2 h [16] was 797 ng/mL, the concentration at 3 h [16] was 289 ng/mL and the concentration at 4 h [16] was 107 ng/mL. For the same molecule, the concentration at 6 h [16] was 22 ng/mL and the concentration at 8 h [16] was 6 ng/mL.
Molecule `C=CCN1CC[C@]23c4c5ccc(O)c4O[C@H]2C(=O)CC[C@@]3(O)[C@H]1C5` [Naloxone, (-)-17-Allyl-4,5α-epoxy-3,14-dihydroxymorphinan-6-one] has a concentration at 0.5 h [16] of 451 ng/mL, a concentration at 1 h [16] of 176 ng/mL and a concentration at 2 h [16] of 65 ng/mL. It also gave a concentration at 3 h [16] of 30 ng/mL, a concentration at 4 h [16] of 10 ng/mL and a concentration at 6 h [16] of 10 ng/mL. The concentration at 8 h [16] was 5 ng/mL.
In the case of `O=C1CC[C@@]2(O)[C@H]3Cc4ccc(O)c5c4[C@@]2(CC[N+]3([O-])CC2CC2)[C@H]1O5` (stereo partly drawn) [Naltrexone N-oxide], the “Average Plasma Naltrexone Conc.” value ([17]; 0.25 hours) is reported as 424 ng/mL, the “Average Plasma Naltrexone Conc.” value ([17]; 0.5 hours) is reported as 752 ng/mL and the “Average Plasma Naltrexone Conc.” value ([17]; 1 hour) is reported as 713 ng/mL. The “Average Plasma Naltrexone Conc.” value ([17]; 1.5 hours) was 559 ng/mL, the “Average Plasma Naltrexone Conc.” value ([17]; 2 hours) was 484 ng/mL and the “Average Plasma Naltrexone Conc.” value ([17]; 3 hours) was 251 ng/mL. The “Average Plasma Naltrexone Conc.” value ([17]; 4 hours) was 110 ng/mL, the “Average Plasma Naltrexone Conc.” value ([17]; 6 hours) was 24 ng/mL and the “Average Plasma Naltrexone Conc.” value ([17]; 8 hours) was 8 ng/mL.
With `O=C1CC[C@@]2(O)[C@H]3Cc4ccc(O)c5c4[C@@]2(CCN3CC2CC2)[C@H]1O5` [Naltrexone, (-)-17-(Cyclopropylmethyl)-4,5α-epoxy-3,14-dihydroxymorphinan-6-one] the “Average Plasma Naltrexone Conc.” value ([17]; 0.25 hours) was 9 ng/mL, the “Average Plasma Naltrexone Conc.” value ([17]; 0.5 hours) was 9 ng/mL and the “Average Plasma Naltrexone Conc.” value ([17]; 1 hour) was 4 ng/mL. For the same molecule, the “Average Plasma Naltrexone Conc.” value ([17]; 1.5 hours) was 4 ng/mL, the “Average Plasma Naltrexone Conc.” value ([17]; 2 hours) was 0 ng/mL and the “Average Plasma Naltrexone Conc.” value ([17]; 3 hours) was 0 ng/mL. For the same molecule, the “Average Plasma Naltrexone Conc.” value ([17]; 4 hours) was 0 ng/mL, the “Average Plasma Naltrexone Conc.” value ([17]; 6 hours) was 0 ng/mL and the “Average Plasma Naltrexone Conc.” value ([17]; 8 hours) was 0 ng/mL.
For `COc1ccc2c3c1O[C@H]1C(=O)CC[C@@]4(O)[C@@H](C2)N(C)CC[C@]314` [Oxycodone], the oral potency [2] is given as “similarly good oral potency”.
For `C[N+]1([O-])CCC[C@H]1c1cccnc1` (stereo partly drawn) [nicotine-1'-N-oxide], the reduction to nicotine ([18]; man, oral versus intravenous) is listed as “partially reduced to nicotine in man after oral administration, but not after intravenous administration” and the first-pass phenomenon ([18]; oral) is listed as “substantially avoids the first-pass phenomenon seen with oral nicotine”.
For `COc1ccc2c3c1O[C@H]1C(=O)CC[C@@]4(O)[C@@H](C2)[N+](C)([O-])CC[C@]314` (stereo partly drawn) [oxycodone N-oxide], the “form of metabolite in urine” value [19] is listed as “found only in the free, unconjugated form”.
